Data reported in patent publication US20100173931A1, “HARMINE DERIVATIVES FOR REDUCING BODY WEIGHT” (OsteoGeneX Inc., priority 2009, published 2010).

Assay: Reduction of body weight with harmine in mice (intraperitoneal injection, 4 weeks)
Assay type: in vivo
Conditions: intraperitoneal in saline, 4 weeks (30 days), initial body weight 30 g
Method: In order to determine the effect of harmine and harmine derivatives in reducing body weight, we administered harmine to mice and tracked their body weights for 4 weeks (30 days). Harmine was solublized in saline and administered via intraperitoneal injection. Animals were weighed weekly.
Mice (6 per group) were divided into seven groups and given one of the following treatments: • 1. 5 mg harmine/kg body weight (Low) • 2. 10 mg harmine/kg body weight (Med) • 3. 20 mg harmine/kg body weight (High) • 4. Saline • 5. 3 mg/kg body weight (Positive control 2) • 6. 5 mg/kg body weight (Positive control low) • 7. 10 mg/kg body weight (Positive control high)
Even at the low dose, the animals lost more than 5% of their body weight.

Structure (SMILES): COc1ccc2c(c1)[nH]c1c(C)nccc12 [harmine]
- reduction in body weight (highest dose 20 mg harmine/kg body weight): 6%
- reduction in body weight (low dose 5 mg harmine/kg body weight): more than 5%
